Active and inactive are the calls of the source. No rule for the calls is given here.
These molecules were tested against D(4) dopamine receptor (Homo sapiens) (UniProt P21917) (assay: DRD4 antagonism, single-point inhibition (AID 743371)). Settings: D4 receptor antagonist assay; at 10 µM; hits give high values.

Compound | inhibition
O=S(=O)(c1cccc(F)c1)N1CCOC(CCc2ccccc2)C1 (stereo not given) | 13% (inactive)
O=C(Nc1cccc(F)c1)N1CCOC(CCc2ccccc2)C1 (stereo not given) | -11% (inactive)
Cc1ccccc1NC(=O)N1CCOC(CCc2ccccc2)C1 (stereo not given) | 15% (inactive)
O=C(c1ccc2ccccc2n1)N1CCOC(CCc2ccccc2)C1 (stereo not given) | -1% (inactive)
c1ccc(CCC2CN(c3ccccc3)CCO2)cc1 (stereo not given) | 5% (inactive)
c1ccc(CCC2CN(Cc3ccccc3)CCO2)cc1 (stereo not given) | 74%
Fc1ccc(CN2CCOC(CCc3ccccc3)C2)cc1 (stereo not given) | 88%
O=C(c1cccnc1)N1CCOC(CCc2ccccc2)C1 (stereo not given) | 18% (inactive)
O=S(=O)(c1ccccc1F)N1CCOC(CCc2ccccc2)C1 (stereo not given) | 9% (inactive)
COc1ccc(CN2CCOC(CCc3ccccc3)C2)cc1 (stereo not given) | 98%
O=C(c1cc(F)c(F)c(F)c1)N1CCOC(CCc2ccccc2)C1 (stereo not given) | 10% (inactive)
O=C(Nc1ccccc1)N1CCOC(CCc2ccccc2)C1 (stereo not given) | 3% (inactive)
O=C(Nc1ccccc1F)N1CCOC(CCc2ccccc2)C1 (stereo not given) | 4% (inactive)
O=S(=O)(c1ccc(F)cc1)N1CCOC(CCc2ccccc2)C1 (stereo not given) | -8% (inactive)
Fc1cccc(F)c1CN1CCOC(CCc2ccccc2)C1 (stereo not given) | 51%
O=C(c1ccccc1)N1CCOC(CCc2ccccc2)C1 (stereo not given) | 5% (inactive)
O=S(=O)(c1ccccc1Cl)N1CCOC(CCc2ccccc2)C1 (stereo not given) | 13% (inactive)
Cn1c(N2CCOC(CCc3ccccc3)C2)nc2ccccc21 (stereo not given) | 17% (inactive)
c1ccc(CCC2CN(Cc3ccccn3)CCO2)cc1 (stereo not given) | 23% (inactive)
FC(F)(F)Oc1ccc(CN2CCO[C@H](CCc3ccccc3)C2)cc1 | 96%
Cc1ccc(N2CCOC(CCc3ccccc3)C2)cc1 (stereo not given) | 6% (inactive)
COc1ccc(C(=O)N2CCOC(CCc3ccccc3)C2)cc1 (stereo not given) | -5% (inactive)
O=C(c1cccc(F)c1)N1CCOC(CCc2ccccc2)C1 (stereo not given) | 1% (inactive)
CC(C)(C)c1ccc(S(=O)(=O)N2CCOC(CCc3ccccc3)C2)cc1 (stereo not given) | 5% (inactive)
O=S(=O)(c1ccccc1)N1CCOC(CCc2ccccc2)C1 (stereo not given) | 2% (inactive)

Compound | inhibition
Clc1ccc(CN2CCOC(CCc3ccccc3)C2)cc1 (stereo not given) | 97%
Cc1cc(C)c(C(=O)N2CCOC(CCc3ccccc3)C2)c(C)c1 (stereo not given) | -8% (inactive)
O=S(=O)(c1ccc2ccccc2c1)N1CCOC(CCc2ccccc2)C1 (stereo not given) | -3% (inactive)
Cc1ccc(NC(=O)N2CCOC(CCc3ccccc3)C2)cc1 (stereo not given) | 12% (inactive)
O=C(c1ccno1)N1CCOC(CCc2ccccc2)C1 (stereo not given) | -14% (inactive)
Clc1ccc(CN2CCO[C@H](CCc3ccccc3)C2)cc1 | 96%
COc1ccc(NC(=O)N2CCOC(CCc3ccccc3)C2)cc1 (stereo not given) | -2% (inactive)
FC(F)(F)Oc1ccc(CN2CCOC(CCc3ccccc3)C2)cc1 (stereo not given) | 94%
Cc1ccccc1CN1CCOC(CCc2ccccc2)C1 (stereo not given) | 54%
O=C(Nc1ccc(F)cc1)N1CCOC(CCc2ccccc2)C1 (stereo not given) | 5% (inactive)
c1ccc(CCC2CN(Cc3cccnc3)CCO2)cc1 (stereo not given) | 35% (inactive)
FC(F)(F)Oc1ccc(CN2CCO[C@@H](CCc3ccccc3)C2)cc1 | 25% (inactive)
O=C(Nc1ccc(Cl)cc1)N1CCOC(CCc2ccccc2)C1 (stereo not given) | 16% (inactive)
FC(F)(F)Oc1cccc(CN2CCOC(CCc3ccccc3)C2)c1 (stereo not given) | 88%
O=S(=O)(c1ccccc1OC(F)(F)F)N1CCOC(CCc2ccccc2)C1 (stereo not given) | 6% (inactive)
O=C(Nc1ccccc1Cl)N1CCOC(CCc2ccccc2)C1 (stereo not given) | 2% (inactive)
c1ccc(CCC2CN(c3ccc4ncccc4c3)CCO2)cc1 (stereo not given) | 16% (inactive)
Cc1cccc(S(=O)(=O)N2CCOC(CCc3ccccc3)C2)c1 (stereo not given) | 13% (inactive)
O=C(c1ccc(Cl)cc1)N1CCOC(CCc2ccccc2)C1 (stereo not given) | 7% (inactive)
Cc1ccc(C(=O)N2CCOC(CCc3ccccc3)C2)cc1 (stereo not given) | 17% (inactive)
Clc1ccc(CN2CCO[C@@H](CCc3ccccc3)C2)cc1 | 39% (inactive)
c1ccc(CCC2CN(Cc3ccncc3)CCO2)cc1 (stereo not given) | 13% (inactive)
COc1ccc(CN2CCO[C@H](CCc3ccccc3)C2)cc1 | 86%
COc1ccc(CN2CCO[C@@H](CCc3ccccc3)C2)cc1 | 44% (inactive)
O=C(c1ccc2c(c1)OCCO2)N1CCOC(CCc2ccccc2)C1 (stereo not given) | -4% (inactive)

— PubChem BioAssay AID743371 (Vanderbilt Specialized Chemistry Center, 2014)
